We go through 25 compounds from ChEMBL document CHEMBL4765253, “Discovery, synthesis, and optimization of an N-alkoxy indolylacetamide against HIV-1 carrying NNRTI-resistant mutations from the Isatis indigotica root” (Eur J Med Chem, 2020).

What is called EC50 is the concentration at which the effect is half-maximal. The CC50 is the concentration giving 50% cytotoxicity. For orientation: IC50 means the midpoint of a concentration-inhibition curve.

For series [1], the system named is Human immunodeficiency virus 1. It is filed as functional, organism-based, HEK293T.
Series [2] deals with HEK-293T. The series is described as follows: Cytotoxicity against human HEK 293T cells assessed as reduction in cell viability measured after 48 hrs by Celltiter-glo assay. It is filed as cell-based. Background: In ATP-based viability assays light output follows the ATP content of the culture.
In series [3] the test system is Human immunodeficiency virus 1. The series is described as follows: Antiviral activity against VSVG/HIV-1 harboring reverse transcriptase K103N mutant infected in human HEK 293T cells assessed as inhibition of virus replication preincubated with cells for 15 mins prior to viral infection and measured at 48 hrs post-infection by luciferase reporter gene assay. The series is classed as functional, organism-based, HEK293T. For orientation: A reporter such as luciferase makes a cellular process visible.

For series [4], the system named is Human immunodeficiency virus 1. The series is described as follows: Antiviral activity against VSVG/HIV-1 harboring reverse transcriptase V108I/K103N double mutant infected in human HEK 293T cells assessed as inhibition of virus replication preincubated with cells for 15 mins prior to viral infection and measured at 48 hrs post-infection by luciferase reporter gene assay. It is filed as functional, organism-based, HEK293T.

For series [5], the system named is Human immunodeficiency virus 1. The series is classed as functional, organism-based, HEK293T. The source holds these as a separate data set.
For series [6], the system named is Human immunodeficiency virus 1. The series is described as follows: Antiviral activity against VSVG/HIV-1 harboring reverse transcriptase G190A/K103N double mutant infected in human HEK 293T cells assessed as inhibition of virus replication preincubated with cells for 15 mins prior to viral infection and measured at 48 hrs post-infection by luciferase reporter gene assay. It is filed as functional, organism-based, HEK293T.

Series [7] relates to Human immunodeficiency virus 1. Kind of series: Antiviral activity against VSVG/HIV-1 harboring reverse transcriptase L100I/K103N double mutant infected in human HEK 293T cells assessed as inhibition of virus replication preincubated with cells for 15 mins prior to viral infection and measured at 48 hrs post-infection by luciferase reporter gene assay. It is filed as functional, organism-based. As to conditions: hek293t.

In series [8] the test system is Human immunodeficiency virus 1. Kind of series: Antiviral activity against VSVG/wild-type HIV-1 infected in human HEK 293T cells assessed as time during which compound exhibits 50% virologic failure at 1 uM treated at post-viral infection and measured at 48 hrs post-infection by luciferase reporter gene assay. It is filed as functional, HEK293T.
The subject of series [9] is Human immunodeficiency virus 1. The series is classed as functional, organism-based, HEK293T. The source holds these as a separate data set.
A short description of series [10]: Inhibition of RNase H activity of HIV-1 reverse transcriptase using DNA/RNA hybrid as substrate incubated for 30 mins by fluorescence based analysis. Also noted: species or system Human immunodeficiency virus 1.
Series [11] concerns Human immunodeficiency virus 1. Kind of series: Antiviral activity against VSVG/wild-type HIV-1 infected in human HEK 293T cells assessed as inhibition of virus replication preincubated with cells for 15 mins prior to viral infection and measured at 48 hrs post-infection by luciferase reporter gene assay. It is filed as functional, organism-based, HEK293T. The settings on record: Human immunodeficiency virus 1, HEK-293T.

Series [12] in a line: Inhibition of HIV-1 reverse transcriptase RNA-dependent DNA polymerase activity assessed as reduction in dTTP incorporation using poly(rA)/oligo(dT) as template/primer incubated for 1 hr followed by transferring into streptavidin plate for 1 hr by absorbance based analysis. Also noted: species or system Human immunodeficiency virus 1.
A short description of series [13]: Selectivity index, ratio of CC50 for human HEK 293T cells to EC50 for VSVG/wild type HIV1 infected in human HEK 293T cells. It is filed as toxicity, cell-based. The settings on record: read-out: Ratio CC50/EC50.
Series [14] concerns HEK-293T. The series is described as follows: Cytotoxicity against human HEK 293T cells assessed as cell viability at 30 uM measured after 48 hrs by Celltiter-glo assay. It is filed as cell-based.
[15] abbreviates: Human immunodeficiency virus 1, HEK-293T.

The structures appear in SMILES notation.

As for `O=C1Nc2ccc(Cl)cc2[C@@](C#CC2CC2)(C(F)(F)F)O1` [EFAVIRENZ], the concentration giving a half-maximal response (EC50) came out at 0.12 µM in [1] (hek293t); 0.03 µM in series [3] (setting [15]); 0.06 µM in [4] (setting [15]); 0.05 µM in series [5] (setting [15]); 0.18 µM in series [6] (hek293t); 1.08 µM in [7]. The compound further yielded a concentration for a half-maximal effect (EC50) in [9] (setting [15]) of 0.002 µM. In addition, the CC50 in the series with HEK-293T [2] was 23.7 µM. The FT50 in series [8] worked out at 9.4 h.

Compound `COC(=O)c1ccccc1NC(=O)Cc1cn(OC)c2ccccc12` registered an IC50 in series [10] above 30 µM.

Turning to `CCCOn1cc(CC(=O)Nc2ccncc2Cl)c2ccccc21`, the 50% cytotoxic concentration (CC50) in the series on HEK-293T [2] came to 16.4 µM. Further, the EC50 turned out to be 0.7 µM in series [3] (setting [15]); 1.27 µM in [4] (hek293t); 1.85 µM in series [5] (hek293t); 1.38 µM in series [6] (hek293t); 0.06 µM in series [11]; 1.18 µM in [7]. The compound also returned a concentration giving a half-maximal response (EC50) in series [9] (hek293t) of 0.18 µM. Also, the IC50 in series [10] is above 100 µM; in series [12], 0.11 µM.

`CCOn1cc(CC(=O)Nc2ccccc2C(=O)OC)c2ccccc21`: in the series on HEK-293T [2], the CC50 is above 30 µM. The selectivity ratio in series [13] is above 5.26. In the series with HEK-293T [14], the Activity stood at 52.76%. Further, the EC50 in [11] turned out to be 5.7 µM.

With `CCCCCOn1cc(CC(=O)Nc2ccccc2Cl)c2ccccc21`, in the series with HEK-293T [2], the CC50 was 18.7 µM. The selectivity ratio in series [13] turned out to be 29.7. In addition, the EC50 in series [11] came to 0.63 µM.

In the case of `CCCCCOn1cc(CC(=O)Nc2ccncc2Cl)c2ccccc21`, the CC50 with HEK-293T [2] was found to be 22 µM. Besides, in series [13], the selectivity ratio amounted to 169. Besides, the EC50 in series [11] came out at 0.13 µM.

Take `CCCCCCOn1cc(CC(=O)Nc2ccccc2Cl)c2ccccc21`: in the series with HEK-293T [2], the 50% cytotoxic concentration (CC50) is above 30 µM. In addition, the selectivity ratio in series [13] is above 29.4. Also, the Activity in the series with HEK-293T [14] turned out to be 56.95%. In series [11], the EC50 stood at 1.02 µM.

As for `COn1cc(CC(=O)Nc2ccccc2I)c2ccccc21`, the CC50 in the series on HEK-293T [2] was above 30 µM. The selectivity ratio in series [13] was above 6.82. For the same compound, the Activity in the series with HEK-293T [14] was 67.04%. Further, the EC50 in series [11] worked out at 4.4 µM.

For the compound `CCCOn1cc(CC(=O)Nc2ccccc2C(F)(F)F)c2ccccc21`, the CC50 in the series on HEK-293T [2] came to 24.9 µM. Moreover, the selectivity ratio in [13] was 5.81. In addition, in series [11], the EC50 stood at 4.28 µM.

In the case of `O=C(Cc1cn(OCc2ccccc2)c2ccccc12)Nc1ccccc1Cl`, the cytotoxic concentration (CC50) in the series on HEK-293T [2] was determined as 16.5 µM. In addition, in [13], the selectivity ratio was 1.93. Further, the concentration giving a half-maximal response (EC50) in series [11] is 8.55 µM.

Consider `CCCOn1cc(CC(=O)Nc2ccncc2F)c2ccccc21`, for which the CC50 with HEK-293T [2] stood at 14.1 µM. In series [13], the selectivity ratio was determined as 42.8. The 50% effective concentration (EC50) in series [11] amounted to 0.33 µM.

Regarding `COn1cc(CC(=O)Nc2ccncc2)c2ccccc21`, in the series with HEK-293T [2], the CC50 was 14.3 µM. Further, the selectivity ratio in series [13] was 2.88. For the same compound, in [11], the EC50 turned out to be 4.95 µM.

On to `COn1cc(CC(=O)Nc2ccncc2Cl)c2ccccc21`, for which the CC50 in the series on HEK-293T [2] worked out at 20 µM. For the same compound, in series [13], the selectivity ratio is 37.7. Besides, the EC50 in series [11] was 0.53 µM.

Turning to `Cc1nnc(C(=O)NC(C)(C)c2nc(C(=O)NCc3ccc(F)cc3)c(O)c(=O)n2C)o1`, in [8], the FT50 stood at 12.2 h.

Consider `Cc1cn([C@H]2C[C@H](N=[N+]=[N-])[C@@H](CO)O2)c(=O)[nH]c1=O` [ZIDOVUDINE], for which, in series [8], the FT50 stood at 8.5 h.

For the compound `O=C(Cc1cn(OCCc2ccccc2)c2ccccc12)Nc1ccccc1Cl`, the 50% cytotoxic concentration (CC50) in the series on HEK-293T [2] is above 30 µM. Also, in series [13], the selectivity ratio was above 5.45. In the series with HEK-293T [14], the Activity was found to be 49.31%. Further, the EC50 in series [11] worked out at 5.5 µM.

`CCCCCCCCOn1cc(CC(=O)Nc2ccccc2Cl)c2ccccc21`: in the series with HEK-293T [2], the CC50 turned out to be 22.9 µM. In [13], the selectivity ratio is 5.21. Moreover, the 50% effective concentration (EC50) in series [11] worked out at 4.4 µM.

With `CCCOn1cc(CC(=O)Nc2ccccc2Cl)c2ccccc21`, the 50% effective concentration (EC50) in series [1] (setting [15]) is above 10 µM; in series [3] (setting [15]), above 10 µM; in [4] (setting [15]) it was above 10 µM; in series [5] (setting [15]), above 10 µM; in [6] (setting [15]) it was above 10 µM; in series [11], 0.29 µM. For the same compound, the figures for the concentration giving a half-maximal response (EC50) in [7] and in series [9] (hek293t) were 8.95 µM and 2.13 µM, respectively. The CC50 in the series with HEK-293T [2] amounted to 29.5 µM. Moreover, the IC50 in [10] was above 100 µM; in [12] it was 0.27 µM.

For `CCOn1cc(CC(=O)Nc2ccccc2Cl)c2ccccc21`, the CC50 with HEK-293T [2] is 20.8 µM. Besides, the selectivity ratio in [13] came to 24.2. Besides, in series [11], the EC50 was 0.86 µM.

As to `COn1cc(CC(=O)Nc2ccccc2Cl)c2ccccc21`, the CC50 in the series on HEK-293T [2] worked out at 27.8 µM. In series [13], the selectivity ratio amounted to 8.42. Moreover, in [11], the EC50 came to 3.3 µM.

Regarding `COn1cc(CC(=O)Nc2ccncc2Br)c2ccccc21`, the CC50 in the series on HEK-293T [2] was 18.6 µM. In addition, in series [13], the selectivity ratio was 28.1. Besides, the EC50 in [11] came out at 0.66 µM.

Turning to `COn1cc(CC(=O)Nc2ccccc2Br)c2ccccc21`, in the series with HEK-293T [2], the CC50 was above 30 µM. Besides, in series [13], the selectivity ratio was above 9.38. Besides, the Activity with HEK-293T [14] was found to be 83.48%. Besides, the concentration for a half-maximal effect (EC50) in series [11] stood at 3.2 µM.

Turning to `CCCOn1cc(CC(=O)Nc2ccccc2C(=O)OC)c2ccccc21`, the CC50 in the series with HEK-293T [2] is above 30 µM. The selectivity ratio in series [13] is above 4.48. The Activity in the series with HEK-293T [14] was determined as 55.39%. Besides, in series [11], the 50% effective concentration (EC50) is 6.7 µM.

For the compound `Cc1ccnc2c1NC(=O)c1cccnc1N2C1CC1` [NEVIRAPINE], the EC50 was above 100 µM in series [1] (setting [15]); 1.4 µM in [3] (hek293t); 2.87 µM in [4] (hek293t); 80 µM in series [5] (setting [15]); 14.6 µM in [6] (hek293t); 0.76 µM in [7]. In addition, the cytotoxic concentration (CC50) in the series with HEK-293T [2] is above 30 µM. The Activity in the series with HEK-293T [14] amounted to 93.26%.

Consider `CCCCOn1cc(CC(=O)Nc2ccncc2Cl)c2ccccc21`, for which the EC50 in series [1] (hek293t) was found to be 1.42 µM; in [4] (hek293t), 0.56 µM; in [6] (setting [15]), 0.7 µM; in series [11] it was 0.04 µM; in series [7], 0.43 µM; in series [9] (setting [15]), 0.04 µM. The CC50 in the series with HEK-293T [2] is 22.1 µM. The figures for the IC50 in series [10] and in series [12] were above 100 µM and 0.08 µM, respectively.
